Columns and labels:
[1] = Zeta potential of liposomes as a function of pH; assay type: physicochemical; settings: FIG. 2
Text: As discussed in Example 5, zeta potential measurements were obtained for the liposomes containing DSPEI and for the liposomes containing HDSG. […] This is likely indicative of a higher pKa and greater charge at physiological pH. […] The greater neutrality of DSPEI-containing liposomes is important for minimization of non-specific interactions with plasma proteins and cells under in vivo conditions and thus prolonged circulation in the blood, which is necessary for systemic drug and gene delivery, as well as delivery of gene modulators, to diseased tissues.
With continuing reference to FIG. 2, zeta potential measurements were also determined for liposomes prepared using dimethyldioctadecylammonium bromide (DDAB) (diamonds). […] Therefore DDAB-containing liposomes retain their cationic charge at physiological pH and are more likely to participate in non-specific interactions with plasma proteins under in vivo conditions. DDAB-containing liposomes are consequently cleared rapidly from circulation and are less suitable for drug or gene delivery to diseased tissues.
Zeta potential was measured using a ZETASIZER 2000 from Malver Instruments, Inc. (Southborough Mass.). […]

[2] = reported values; cited from earlier work

Structure (SMILES) | pKa relative to the other lipids, inferred from zeta potential versus pH slope [1] | pKa [2]
CCCCCCCCCCCCCCCCCC[N+](C)(C)CCCCCCCCCCCCCCCCCC.[Br-] [DDAB, dimethyldioctadecylammonium bromide, reference compound] | higher than for either HDSG or DSPEI | –
CCCCCCCCCCCCCCCCCC(=O)OCC(COP(=O)(O)OCCNCc1c[nH]cn1)OC(=O)CCCCCCCCCCCCCCCCC (stereo not shown) [DSPEI, distearoylphosphatidylethanolamine imidazole] | lower pKa than HDSG | –
NCCc1c[nH]cn1 [histamine] | – | 6
c1c[nH]cn1 [imidazole] | – | about 6.0

— patent publication US20050191344A1, “Liposome composition for delivery of therapeutic agents” (priority 2004, published 2005)
